# Columns and labels:
# MDA-MB-453 = test: Cell cycle analysis by BrdU labeling and flow cytometry; type: cell-based, human; details: no constitutively-active Stat3
# Protocol: (§1) FIG. 6. Analysis of relative cellular DNA content using BrdU labeling and flow cytometry. Relative DNA content of human breast cancer cell lines following treatment with or without PLATINUM-401 was analyzed by BrdU incorporation and flow cytometry. The population of cells determined from the relative DNA content is shown in each panel for each treatment condition. Results are the representative of 3 independent determinations.
# (§2) Cell proliferation and TUNEL assays—Proliferating cells were first treated with or without PLATINUM-401 for up to 48 h. A portion of cells were harvested for BrdU incorporation following the manufacturer's (BD Biosciences Pharmingen, San Diego, Calif.) instructions and analyzed by flow cytometry. Harvested cells were also analyzed for apoptosis via detection of TdT-mediated dUTP nick-end labeling (TUNEL) assay using Apoptosis Detection Systems Fluorescein according to the manufacturer's (Roche, Indianapolis, Ind.) instructions. Oligonucleotides and plasmids Transfections. The Stat3 antisense (5′-[…]-3′) (SEQ ID NO:3) or control mismatch oligonucleotides (5′-[…]-3′) (SEQ ID NO:4) were synthesized using phosphorothioate chemistry and were synthesized with 2′-Omethoxyethyl modification of the five terminal nucleotides (underlined; (Mora et al., 2002; Karras et al., 2000)) to increase stability. Transfections of Stat3AS and plasmids were carried out with Lipofectamine 2000 (LF) according to the manufacturer's instructions (Invitrogen, Carlsbad, Calif.). Briefly, cells were seeded at 1-2×10^6 cells/10-cm tissue-culture plates 18 h before transfection. Immediately before transfection, cells were washed once with PBS. Cells were transfected with luciferase reporters (4 μg) in the presence or absence of v-Src (4 μg), or were transfected with Stat3β (4 μg) or pRC/CMV Stat3 Flag (4 μg). […]
# (§3) The inventors further examined the biological effects of PLATINUM-401 and determined whether any changes might correlate with the inhibition of constitutively-active Stat3. […]
# MDA-MB-231 = test: as above; type: cell-based, human
# Protocol: as §1, §2, §3
# [1] = system: normal NIH 3T3 fibroblasts; test: Ki67 proliferation index by immunohistochemistry; type: cell-based, mouse; details: no persistent Stat3 activity
# Protocol: (§4) FIGS. 5A and 5B. Evaluation for effects of PLATINUM-401 on cellular constitutive Stat3 activation and cell proliferation. Normal or malignant cells were treated with or without PLATINUM-401 and nuclear extracts were prepared for Stat3 DNA-binding activity assay with hSIE probe, or cells were processed for nuclear Ki67 immunohistochemistry. (FIG. 5A) EMSA analysis of Stat3 DNA-binding activity; (FIG. 5B) Graphical representations of quantified nuclear staining of Ki-67 proliferation index. Stat3:Stat3-DNA complexes in gels are labeled. The Ki-67 proliferation indexes were calculated as the percent positive tumor cells relative to the total number of cells. […]
# (§5) Immunohistochemistry—The indirect peroxidase-antiperoxidase test was performed on cytospins prepared from cell lines (control and treated). […] The presence of Ki-67 nuclear staining was calculated as percent positive tumor cells in relation to the total number of cells.
# as §3
# (§6) Changes in cell proliferation induced by treatment with PLATINUM-401 were assayed in terms of Ki67 proliferation index by immunohistochemistry. The presence of Ki-67 nuclear staining was calculated as the percent positive tumor cells in relation to the total number of cells.
# [2] = system: malignant cells harboring constitutively-active Stat3; test: Ki67 proliferation index by immunohistochemistry; type: cell-based
# Protocol: as §4, §5, §3, §6
# pLucSRE = test: c-fos promoter-driven luciferase reporter assay; type: cell-based; details: transient transfection in mouse fibroblasts
# Protocol: FIGS. 3A-3D. Inhibition of Stat3-mediated gene expression by PLATINUM-401. (FIG. 3A) and (FIG. 3B) v-Src-transformed mouse fibroblasts that stably express Stat3-dependent (NIH3T3/v-Src/pLucTKS3) and Stat3-independent (NIH3T3/v-Src/pRLSRE) luciferase reporters or β-galactosidase (β-gal), as well as normal mouse fibroblast (NIH3T3) transiently transfected with pLucTKS3, pGL2-VEGF-Luc, NFkB-Luc or pLucSRE together with or without v-Src were treated with or without PLATINUM-401 for 48 h. Cytosolic extracts were then prepared from cells for luciferase and […] activities measurements. […]
# Cell proliferation and TUNEL assays—Proliferating cells were first treated with or without PLATINUM-401 for up to 48 h. A portion of cells were harvested for BrdU incorporation following the manufacturer's (BD Biosciences Pharmingen, San Diego, Calif.) instructions and analyzed by flow cytometry. Harvested cells were also analyzed for apoptosis via detection of TdT-mediated dUTP nick-end labeling (TUNEL) assay using Apoptosis Detection Systems Fluorescein according to the manufacturer's (Roche, Indianapolis, Ind.) instructions. […]
# To further investigate the activities of PLATINUM-401, the inventors treated malignant cells and measured effects on Stat3 signaling. […]
smiles,measurement,setting,value
CC(O)CN1CCN(CC(C)O)CC1 (stereo not drawn) [PLATINUM-401],cell cycle profile,MDA-MB-453,no significant change
same,cell cycle change,"MDA-MB-231; BrdU, flow cytometry",arrested at G0/G1 phase
same,S phase cells,MDA-MB-231; persists up to 48 h,significant decrease
same,proliferation (Ki67 index),[1],lack of effect
same,Ki67 nuclear staining,[2],significant decreases
same,induction of c-fos promoter-driven luciferase reporter activity,pLucSRE,no inhibitory effects

# From patent US11571418B2, “Platinum compounds that inhibit constitutive STAT3 signaling and induce cell cycle arrest and apoptosis of malignant cells” (H. LEE MOFFITT CANCER CENTER AND RESEARCH INSTITUTE, INC., priority 2011, dated 2023)
